Measurements published in patent US3940482A, “Solubilization of the zinc salt of 1-hydroxy-2-pyridinethione” (priority 1973, dated 1976).

Key:
[1] = Solubilization of zinc pyridinethione in anionic shampoo base (visual observations); format: physicochemical
[2] = Solubilization of zinc pyridinethione in amphoteric shampoo base (visual observations)
[3] = Effect of chelating/sequestering agent on biocidal activity of zinc pyridinethione; settings: aliphatic polyamine, up to two-fold excess
[4] = Solubilization of zinc pyridinethione in water by DETA, DGA, PEI-1000 (visual observations); format: physicochemical
Procedure: H2 O. This 48.5 g. slurry is stirred for 1 minute. […] Also, to 0.75 g. […] H2 O. The 45.50 g. slurry is stirred for 1 minute.
**A.E. means active ingredients.

[5] = less than one part EDTA per part pyridinethione salt shows this effect; cited from earlier work

In the case of NCCNCCN [DETA, diethylene triamine], the “Visual observation at pH 9.2” value ([1]; anionic shampoo, pH decreased with HCl to 9.2) is reported as “slightly cloudy”, the “pH down to which shampoo remains clear” value ([2]; pH adjustment with HCl, smoky color at this pH) is reported as ~9.3 and the “effect on antimicrobial activity of zinc pyridinethione” value [3] is reported as “does not reduce the antimicrobial activity”. The “pH at which solution starts clouding up” value ([4]; pH adjusted downward with HCl) was ~9.2 and the “precipitation at pH 8.8” value ([4]; pH adjusted downward with HCl, pH 8.8) was ~50%.

In the case of NCCOCCO [DGA, diglycolamine], the Visual - unadjusted [1] is reported as “Cloudy shampoo”, the pH - unadjusted ([1]; anionic shampoo, 1.5% zinc pyridinethione, 3.0% solubilizer) is reported as 9.0 and the “zinc pyridinethione soluble (visual, unadjusted pH)” value ([1]; anionic shampoo, unadjusted pH) is reported as < 10%. The pH - unadjusted ([2]; 1.5% zinc pyridinethione, 3.0% solubilizer) was 9.6, the “Solubility of zinc pyridinethione on stirring at room temperature for 3 minutes” value [4] was “Less than 10%” and the “Visual observation: hot plate heating until 110°F.” value [4] was “No greater solubility. Zinc pyridinethione quickly settles”. For the same compound, the “effectiveness as solubilizing agent for heavy metal salts of pyridinethione” value [4] was “ineffective” and the “pH of solution unadjusted” value ([4]; 1.5% zinc pyridinethione, 3.0% solubilizer in water) was 11.2.

In the case of O=C(O)CN(CCN(CC(=O)O)CC(=O)O)CC(=O)O [ethylenediamine tetraacetic acid], the “effect on biocidal activity of zinc pyridinethione” value [5] is given as “very deleterious effect”.
